Laboratory results reported in patent US11046699B2, “Pyrazolo-pyrimidin-amino-cycloalkyl compounds and their therapeutic uses” (RAPT THERAPEUTICS, INC., priority 2018, dated 2021).

Biological target: GCN2 (Homo sapiens, UniProt Q9P2K8)
Experiment: GCN2 enzymatic endpoint assay: phosphorylation of GFP-eIF2α measured by TR-FRET (Lanthascreen)
Type: biochemical
Details: tested as described in Example 77; compound and/or hydrochloride, dihydrochloride or trifluoroacetic acid salt; read-out: IC 50 Activity
In short: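 Reaction started with 2 μM ATP and 80 nM GFP-labelled eIF2α substrate at room temperature, stopped with EDTA after 90 minutes. Phospho-eIF2α detected by terbium-labelled antibody TR-FRET; activity taken as 520 nm (fluorescein) to 495 nm (terbium) emission ratio.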

GCN2, sequence (Q9P2K8 whole entry): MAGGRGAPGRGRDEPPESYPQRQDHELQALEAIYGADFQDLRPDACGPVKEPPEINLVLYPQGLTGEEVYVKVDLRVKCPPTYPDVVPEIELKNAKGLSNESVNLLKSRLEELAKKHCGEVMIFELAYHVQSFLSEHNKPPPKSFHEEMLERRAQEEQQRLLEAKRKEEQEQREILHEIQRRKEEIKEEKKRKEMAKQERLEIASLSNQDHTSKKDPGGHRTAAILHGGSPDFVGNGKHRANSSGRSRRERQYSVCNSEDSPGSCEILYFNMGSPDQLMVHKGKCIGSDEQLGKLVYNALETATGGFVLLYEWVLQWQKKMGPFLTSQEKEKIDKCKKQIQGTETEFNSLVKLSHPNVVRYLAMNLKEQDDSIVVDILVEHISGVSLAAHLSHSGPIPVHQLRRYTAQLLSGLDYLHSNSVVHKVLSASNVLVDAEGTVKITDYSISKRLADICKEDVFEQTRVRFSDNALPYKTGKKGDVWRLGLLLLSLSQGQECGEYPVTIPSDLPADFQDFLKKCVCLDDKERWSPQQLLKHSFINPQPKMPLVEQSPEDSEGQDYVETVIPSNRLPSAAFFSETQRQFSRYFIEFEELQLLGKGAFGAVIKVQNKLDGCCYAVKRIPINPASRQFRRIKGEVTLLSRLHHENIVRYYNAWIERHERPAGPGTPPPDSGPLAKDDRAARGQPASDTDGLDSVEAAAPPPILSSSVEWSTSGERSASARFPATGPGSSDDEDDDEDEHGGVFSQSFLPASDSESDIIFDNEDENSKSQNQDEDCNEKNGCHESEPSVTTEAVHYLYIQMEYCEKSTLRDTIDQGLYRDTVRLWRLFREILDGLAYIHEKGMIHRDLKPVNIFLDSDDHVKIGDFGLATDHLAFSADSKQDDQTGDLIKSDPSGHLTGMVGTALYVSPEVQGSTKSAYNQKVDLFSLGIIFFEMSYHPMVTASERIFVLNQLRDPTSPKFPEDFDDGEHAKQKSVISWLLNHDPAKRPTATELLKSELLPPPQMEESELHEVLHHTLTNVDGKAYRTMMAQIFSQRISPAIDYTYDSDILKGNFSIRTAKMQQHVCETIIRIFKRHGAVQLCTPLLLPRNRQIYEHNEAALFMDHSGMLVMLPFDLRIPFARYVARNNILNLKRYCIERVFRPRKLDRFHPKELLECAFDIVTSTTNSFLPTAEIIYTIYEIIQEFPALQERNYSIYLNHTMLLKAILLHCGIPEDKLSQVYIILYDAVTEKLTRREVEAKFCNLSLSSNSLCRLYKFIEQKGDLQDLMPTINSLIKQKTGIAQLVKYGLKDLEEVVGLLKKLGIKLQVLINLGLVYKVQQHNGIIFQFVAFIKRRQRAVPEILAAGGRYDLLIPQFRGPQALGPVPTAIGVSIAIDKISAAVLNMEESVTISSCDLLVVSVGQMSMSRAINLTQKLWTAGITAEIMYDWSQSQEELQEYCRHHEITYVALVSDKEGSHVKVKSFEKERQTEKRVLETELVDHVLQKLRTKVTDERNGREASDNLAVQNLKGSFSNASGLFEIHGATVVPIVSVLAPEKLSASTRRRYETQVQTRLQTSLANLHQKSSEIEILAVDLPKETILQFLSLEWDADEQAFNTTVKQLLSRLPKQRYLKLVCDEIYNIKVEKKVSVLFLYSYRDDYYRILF

IC50	SMILES
25 to 200 nM	CNC(=O)C1(C)CC[C@@H](Nc2ncc3c(Br)nn(-c4ccc(-c5nc(C)no5)cc4)c3n2)C1 (stereo partly drawn) [(3R)-3-[[3-bromo-1-[4-(3-methyl-1,2,4-oxadiazol-5-yl)phenyl]pyrazolo[3,4-d]pyrimidin-6-yl]amino]-N,1-dimethyl-cyclopentanecarboxamide]
25 to 200 nM	CNC(=O)C1(C)CC[C@@H](Nc2ncc3c(Br)nn(-c4ccc(-c5noc(C)n5)cc4)c3n2)C1 (stereo partly drawn) [(3R)-3-[[3-bromo-1-[4-(5-methyl-1,2,4-oxadiazol-3-yl)phenyl]pyrazolo[3,4-d]pyrimidin-6-yl]amino]-N,1-dimethyl-cyclopentanecarboxamide]
25 to 200 nM	CNC(=O)N1CC[C@@H](Nc2ncc3c(Br)nn(-c4ccc(-c5nnc(C)s5)cc4)c3n2)C1 [(3R)-3-[[3-bromo-1-[4-(5-methyl-1,3,4-thiadiazol-2-yl)phenyl]pyrazolo [3,4-d]pyrimidin-6-yl]amino]-N-methyl-pyrrolidine-1-carboxamide]
25 to 200 nM	CNC(=O)C1(CCC#N)CC[C@@H](Nc2ncc3c(Br)nn(-c4ccc(-c5nnc(C)s5)cc4)c3n2)C1 (stereo partly drawn) [(3R)-3-[[3-bromo-1-[4-(5-methyl-1,3,4-thiadiazol-2-yl)phenyl]pyrazolo[3,4-d]pyrimidin-6-yl]amino]-1-(2-cyanoethyl)-N-methyl-cyclopentanecarboxamide]
25 to 200 nM	CNC(=O)C1(CCS(C)(=O)=O)CC[C@@H](Nc2ncc3c(Br)nn(-c4ccc(-c5nnc(C)s5)cc4)c3n2)C1 (stereo partly drawn) [(3R)-3-[[3-bromo-1-[4-(5-methyl-1,3,4-thiadiazol-2-yl)phenyl]pyrazolo[3,4-d]pyrimidin-6-yl]amino]-N-methyl-1-(2-methylsulfonylethyl)cyclopentane-carboxamide]
25 to 200 nM	CNS(=O)(=O)C1CC[C@@H](Nc2ncc3c(Br)nn(-c4ccc(-c5nnc(C)s5)cc4)c3n2)C1 (stereo partly drawn) [(3R)-3-[[3-bromo-1-[4-(5-methyl-1,3,4-thiadiazol-2-yl)phenyl]pyrazolo[3,4-d]pyrimidin-6-yl]amino]-N-methyl-cyclopentanesulfonamide]
25 to 200 nM	CNC(=O)C1(C)CC[C@@H](Nc2ncc3c(Br)nn(-c4ccc(Cn5ccnc5)cc4)c3n2)C1 (stereo partly drawn) [(3R)-3-[[3-bromo-1-[4-(imidazol-1-ylmethyl)phenyl]pyrazolo[3,4-d]pyrimidin-6-yl]amino]-N,1-dimethyl-cyclopentanecarboxamide]
25 to 200 nM	CNC(=O)C1(C)CC[C@@H](Nc2ncc3c(Br)nn(-c4ccc(-c5cnn(CCOC)c5)cc4)c3n2)C1 (stereo partly drawn) [(3R)-3-[[3-bromo-1-[4-[1-(2-methoxyethyl)pyrazol-4-yl]phenyl]pyrazolo[3,4-d]pyrimidin-6-yl]amino]-N,1-dimethyl-cyclopentanecarboxamide]
< 25 nM	CNC(=O)[C@]1(C)CC[C@@H](Nc2ncc3c(Br)nn(-c4ccc(-c5ncco5)c(NC(=O)[C@@H]5CCNC5)c4)c3n2)C1 [(3R)-N-[5-[3-bromo-6-[[(1R,3R)-3-methyl-3-(methylcarbamoyl)cyclopentyl]amino]pyrazolo[3,4-d]pyrimidin-1-yl]-2-oxazol-2-yl-phenyl]pyrrolidine-3-carboxamide]
< 25 nM	CNC(=O)[C@]1(C)CC[C@@H](Nc2ncc3c(Br)nn(-c4ccc(-c5ncco5)c(NC(=O)[C@H]5CCNC5)c4)c3n2)C1 [(3S)-N-[5-[3-bromo-6-[[(1R,3R)-3-methyl-3-(methylcarbamoyl)cyclopentyl]amino]pyrazolo[3,4-d]pyrimidin-1-yl]-2-oxazol-2-yl-phenyl]pyrrolidine-3-carboxamide]
< 25 nM	O=C1OCC[C@]12CC[C@@H](Nc1ncc3c(Br)nn(-c4cc(F)c5ncccc5c4)c3n1)C2 [(5R,7R)-7-((3-bromo-1-(8-fluoroquinolin-6-yl)-1H-pyrazolo[3,4-d]pyrimidin-6-yl)amino)-2-oxaspiro[4.4]nonan-1-one]
25 to 200 nM	O=C1OCC[C@@]12CC[C@@H](Nc1ncc3c(Br)nn(-c4cc(F)c5ncccc5c4)c3n1)C2 [(5S,8R)-8-[[3-bromo-1-(8-fluoro-6-quinolyl)pyrazolo[3,4-d]pyrimidin-6-yl]amino]-2-oxaspiro[4.4]nonan-1-one]
25 to 200 nM	O=C([C@@H]1CC[C@@H](Nc2ncc3c(Br)nn(-c4ccc5ncccc5c4)c3n2)C1)N1CC2CCC(C1)O2 [(8-oxa-3-azabicyclo[3.2.1]octan-3-yl)((1R,3R)-3-((3-bromo-1-(quinolin-6-yl)-1H-pyrazolo [3,4-d]pyrimidin-6-yl)amino)cyclopentyl) methanone]
< 25 nM	O=C([C@@H]1CC[C@@H](Nc2ncc3c(Br)nn(-c4cc(F)c5ncccc5c4)c3n2)C1)N1CCN2C(=O)CC[C@@H]2C1 [(8aR)-2-[(1R,3R)-3-[[3-bromo-1-(8-fluoro-6-quinolyl)pyrazolo[3,4-d]pyrimidin-6-yl]amino]cyclopentane-carbonyl]-1,3,4,7,8,8a-hexahydro-pyrrolo[1,2-a]pyrazin-6-one]
25 to 200 nM	C[C@@]1(C(=O)N2CCN3C(=O)CC[C@H]3C2)CC[C@@H](Nc2ncc3c(Br)nn(-c4cc(F)c5ncccc5c4)c3n2)C1 [(8aS)-2-[(1R,3R)-3-[[3-bromo-1-(8-fluoro-6-quinolyl)pyrazolo[3,4-d]pyrimidin-6-yl]amino]-1-methyl-cyclopentanecarbonyl]-1,3,4,7,8,8a-hexahydropyrrolo[1,2-a]pyrazin-6-one]
< 25 nM	O=C([C@@H]1CC[C@@H](Nc2ncc3c(Br)nn(-c4cc(F)c5ncccc5c4)c3n2)C1)N1CCN2C(=O)CC[C@H]2C1 [(8aS)-2-[(1R,3R)-3-[[3-bromo-1-(8-fluoro-6-quinolyl)pyrazolo[3,4-d]pyrimidin-6-yl]amino]cyclopentane-carbonyl]-1,3,4,7,8,8a-hexahydro-pyrrolo[1,2-a]pyrazin-6-one]
25 to 200 nM	O=C([C@@H]1CC[C@@H](Nc2ncc3c(Br)nn(-c4cc(F)c5ncccc5c4)c3n2)C1)N1CCS(=O)(=O)CC1 [((1R,3R)-3-((3-bromo-1-(8-fluoroquinolin-6-yl)-1H-pyrazolo[3,4-d]pyrimidin-6-yl)amino)cyclopentyl)(1,1-dioxidothio-morpholino)methanone]
25 to 200 nM	O=C([C@@H]1CC[C@@H](Nc2ncc3c(Br)nn(-c4cc(F)c5ncccc5c4)c3n2)C1)n1ccc(C(F)(F)F)n1 [((1R,3R)-3-((3-bromo-1-(8-fluoroquinolin-6-yl)-1H-pyrazolo[3,4-d]pyrimidin-6-yl)amino)cyclopentyl)(3-(trifluoromethyl)-1H-pyrazol-1-yl)methanone]
25 to 200 nM	O=C([C@@H]1CC[C@@H](Nc2ncc3c(Br)nn(-c4cc(F)c5ncccc5c4)c3n2)C1)N1CCN2CCOC[C@@H]2C1 [((1R,3R)-3-((3-bromo-1-(8-fluoroquinolin-6-yl)-1H-pyrazolo[3,4-d]pyrimidin-6-yl)amino)cyclopentyl)((S)-hexahydropyrazino[2,1-c] [1,4]oxazin-8(1H)-yl)methanone]
25 to 200 nM	O=C([C@@H]1CC[C@@H](Nc2ncc3c(Br)nn(-c4ccc5ncccc5c4)c3n2)C1)N1CCS(=O)(=O)CC1 [((1R,3R)-3-((3-bromo-1-(quinolin-6-yl)-1H-pyrazolo[3,4-d]pyrimidin-6-yl)amino)cyclo-pentyl)(1,1-dioxidothiomorpholino)methanone]
25 to 200 nM	O=C([C@@H]1CC[C@@H](Nc2ncc3c(Br)nn(-c4ccc5ncccc5c4)c3n2)C1)N1CC[S+]([O-])CC1 [((1R,3R)-3-((3-bromo-1-(quinolin-6-yl)-1H-pyrazolo[3,4-d]pyrimidin-6-yl)amino)cyclo-pentyl)(1-oxidothiomorpholino)methanone]
25 to 200 nM	O=C([C@@H]1CC[C@@H](Nc2ncc3c(Br)nn(-c4ccc5ncccc5c4)c3n2)C1)N1CC2(CCNC2)C1 [((1R,3R)-3-((3-bromo-1-(quinolin-6-yl)-1H-pyrazolo[3,4-d]pyrimidin-6-yl)amino)cyclo-pentyl)(2,6-diazaspiro[3.4]octan-2-yl) methanone]
< 25 nM	O=C([C@@H]1CC[C@@H](Nc2ncc3c(Br)nn(-c4ccc5ncccc5c4)c3n2)C1)N1CCC2(CNC2)C1 [((1R,3R)-3-((3-bromo-1-(quinolin-6-yl)-1H-pyrazolo[3,4-d]pyrimidin-6-yl)amino)cyclo-pentyl)(2,6-diazaspiro[3.4]octan-6-yl) methanone]
25 to 200 nM	O=C([C@@H]1CC[C@@H](Nc2ncc3c(Br)nn(-c4ccc5ncccc5c4)c3n2)C1)N1CC(N2CCS(=O)(=O)CC2)C1 [((1R,3R)-3-((3-bromo-1-(quinolin-6-yl)-1H-pyrazolo[3,4-d]pyrimidin-6-yl)amino)cyclo-pentyl)(3-(1,1-dioxidothiomorpholino)azetidin-1-yl)methanone]
25 to 200 nM	O=C([C@@H]1CC[C@@H](Nc2ncc3c(Br)nn(-c4ccc5ncccc5c4)c3n2)C1)N1CCC(O)(CO)CC1 [((1R,3R)-3-((3-bromo-1-(quinolin-6-yl)-1H-pyrazolo[3,4-d]pyrimidin-6-yl)amino)cyclo-pentyl)(4-hydroxy-4-(hydroxymethyl)piperidin-1-yl)methanone]
200 to 500 nM	O=C([C@@H]1CC[C@@H](Nc2ncc3c(Br)nn(-c4ccc5ncccc5c4)c3n2)C1)N1CCC(O)(C(F)(F)F)CC1 [((1R,3R)-3-((3-bromo-1-(quinolin-6-yl)-1H-pyrazolo[3,4-d]pyrimidin-6-yl)amino)cyclo-pentyl)(4-hydroxy-4-(trifluoromethyl)piperidin-1-yl)methanone]
25 to 200 nM	C[C@@H]1CN(C(=O)[C@@H]2CC[C@@H](Nc3ncc4c(Br)nn(-c5ccc6ncccc6c5)c4n3)C2)C[C@@H](C)O1 [((1R,3R)-3-((3-bromo-1-(quinolin-6-yl)-1H-pyrazolo[3,4-d]pyrimidin-6-yl)amino)cyclo-pentyl)((2R,6R)-2,6-dimethylmorpholino) methanone]
< 25 nM	C[C@@H]1CNC[C@H](C)N1C(=O)[C@@H]1CC[C@@H](Nc2ncc3c(Br)nn(-c4ccc5ncccc5c4)c3n2)C1 [((1R,3R)-3-((3-bromo-1-(quinolin-6-yl)-1H-pyrazolo[3,4-d]pyrimidin-6-yl)amino)cyclo-pentyl)((2R,6S)-2,6-dimethylpiperazin-1-yl)methanone]
